This is an account of results in article PMC7496275, “Pentathiepins: A Novel Class of Glutathione Peroxidase 1 Inhibitors that Induce Oxidative Stress, Loss of Mitochondrial Membrane Potential and Apoptosis in Human Cancer Cells” (Chemmedchem, 2020).

One assay has as its system human GPx. Briefly: GPx activity assay with human cancer cell lysates (SISO). Format: biochemical. To be noted: inhibitor at its IC50 for bovine GPx, 0.5 mM GSH. As for the experimental part:
To investigate whether the pentathiepins have an inhibitory effect on human GPx, cell lysates of the human cervix cancer cell line SISO, which expresses high levels of GPx1 (see below), were incubated with either 4 or MSA in concentrations of the IC50 value for the inhibitory effect on bovine GPx1.
To measure the inhibition of human GPx activity, the enzyme assay was adapted to use human cancer cell lysates in place of the bovine enzyme. A quantity of 100 μg cellular protein (determined according to the Bradford method) per well was used. Due to the large consumption of cell lysates, just the inhibitory effect on GPx at one concentration of pentathiepin was determined in primary screening. The concentration of GSH was raised to a concentration of 0.5 mM to increase the velocity of the reaction, all other conditions were unchanged. The rates of NADPH oxidation were normalized to the solvent control. […] We used 100 μg protein of lysates and added GSH up to final concentrations between 0.375–3 mM. The rates of the GPx activity were calculated by nonlinear regression and the fitted with the GraphPad Prism 6.0 software: “Enzyme kinetics – Substrate vs. Velocity (Michaelis‐Menten)”.

Another assay concerns SISO cells. Briefly: Fluorescence microscopy for lipid peroxidation (BODIPY 581/591). The format is cell-based, human. To be noted: 25 μM, 24 h. On the procedure: In another set of experiments, LPO was visualized by fluorescence microscopy with a dye for lipid peroxides, BODIPY 581/591. […] Together, our results point to apoptosis and not ferroptosis as the mechanism of cell death induced by 4.
Fluorescence microscopy for the detection of lipid peroxidation: SISO cells (250 000 cells) were seeded out in 6‐well plates with an inserted coverslip. Cells were allow to attach for 24 h and then exposed to 25 μM 4 or 100 μM tert‐butyl‐hydroperoxide as a positive control. After 24 h coverslips were washed with PBS and stained with 1 μM BODIPY 581/591 in culture medium for 30 min. Cells on the coverslips were then mounted and examined with a Leica DMi8 fluorescence microscope at λ ex/em=460–500/512–542 nm for the oxidized BODIPY 581/591 and λ ex/em=540–581/592–668 for the reduced form.

Another assay has as its system Gumbus cells. Briefly: Apoptosis staining with Annexin-V/PI (flow cytometry). The format is cell-based, human. As for the experimental part: (§1) To determine whether the loss in viability by 4 is caused by apoptosis, a flow cytometric analysis with Annexin‐V−FITC and PI‐stained cells was used. Early apoptotic cells undergo a translocation of phosphatidyl serine from the inner to the outer cell membrane monitored by Annexin‐V−FITC. Late apoptotic or necrotic cells also show a loss of cell membrane integrity verifiable by PI. Cells were exposed to 4 in multiple concentrations of the viability inhibition IC50 for 6 and 24 h.
(§2) Apoptosis staining with Annexin‐V/PI: For the apoptosis measurement, the translocation of phosphatidyl serine from the inner to the outer membrane by Annexin‐V and PI double staining was used.41 The protocol of the manufacturer (Miltenyi Biotec, Germany) of the “Annexin‐V‐FITC Apoptosis Detection Kit” was followed. In brief, 500,000 cells were seeded into 6‐well plates and exposed to 4 at multiple concentrations of the viability IC50 for 6 and 24 h. Afterwards, the cells were collected in reaction tubes, washed with the binding buffer belonging to the Annexin‐V‐Kit and stained with Annexin‐V‐FITC for 10 min. After repeated washing steps, the PI solution was added to the cells and followed by the flow cytometry investigation analyses at λ ex/em=488/525±50 nm for FITC and λ ex/em=488/655–730 nm for PI with a MACSQuant Analyzer 10 (Miltenyi Biotec).
In general terms: A flow cytometer gives signals particle by particle.

A further assay deals with HL-60 cells. The assay is described as above. The format is cell-based, human. Conditions: multiples of viability IC50, 24 h. On the procedure:
as §1, §2

The target of the next assay is T1, bovine GPx1 (Bos taurus, UniProt P00435).
T1 construct: 180 μL of a bovine erythrocyte GPx1 solution (0.125 U/mL); purchased Sigma Aldrich (Taufkirchen, Germany); host or cells: bovine erythrocytes
T1 sequence (P00435 1-205): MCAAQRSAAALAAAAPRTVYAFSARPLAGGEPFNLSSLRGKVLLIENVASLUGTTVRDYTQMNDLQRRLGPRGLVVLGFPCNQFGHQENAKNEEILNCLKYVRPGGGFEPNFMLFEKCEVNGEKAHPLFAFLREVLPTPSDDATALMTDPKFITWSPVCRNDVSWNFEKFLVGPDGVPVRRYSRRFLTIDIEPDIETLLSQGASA
Briefly: Jump-dilution experiments for reversibility of GPx1 inhibition. Format: biochemical. Conditions: 30 min pre-incubation at 23 °C, 100-fold jump-dilution. On the procedure:
No difference in the inhibitory activity of 4 after jump‐dilution (Figure 4B left, a) was observed compared to expected inhibition at 0.25 μM (Figure 4B left, 0.25 μM), evidence that GPx1 inhibition is reversible. […] This is consistent with findings that MSA can act as an irreversible inhibitor of GPx1.11 In further jump‐dilution experiments, we pre‐incubated both inhibitors with the assay concentrations of either GSH and TBHP (a, d) or GSH only (b, e), with (a–c) and without (d–f) GPx1 for 30 min.
The jump‐dilution experiments were carried out in a 96‐well plates at room temperature. To each well was added 75 μL of a 20 IU mL^−1 GPx stock‐solution followed by the addition of 3 μL of a 2.5 mM solution of 4 in DMF and 30 μL of a 2.5 mM solution of GSH in buffer or 30 μL of a 2.5 mM solution of GSH in buffer and 30 μL of a 5 mM solution of TBHP in water and 300 μL buffer. The plates were shaken for 30 min in the dark, then each well was diluted 100 fold into a second plate prepared for the GPx‐assay. The enzyme activity was immediately measured as described above.

In the case of `CCOc1c2c(c3cnc4cc(C)c(C)cc4n13)SSSSS2` [Compound 4], the “inhibition of GPx activity” value in the assay with human GPx was “about 20%”. In addition, the “lipid peroxidation (LPO)” value in the assay on SISO cells was “no indication for LPO”. Moreover, the apoptotic population entry with Gumbus cells (fourfold IC50 concentration, 6 h) is reported as “nearly every cell was apoptotic”; in the assay on Gumbus cells (multiples of viability IC50, 6 h) it was “significant increase of an apoptotic population”; in the assay with HL-60 cells, “significant increase of an apoptotic population”. For the same compound, the “reversibility of GPx1 inhibition” value on bovine GPx1 is “reversible”.
